Peptide text beside a SMILES is read from it.
Assays:
[1] = test system: post-infusion PBMC samples
HLA-A*11:01 = HLA-A*11:01 (Homo sapiens, UniProt P04439, A114D/D185E/E176A/F33Y/L180Q/S129P/T187R); assay: REVEAL Epitope Discovery System in vitro MHC-peptide binding score; parameters: key: % binding, normalized to positive control peptide set at 100%; settings: binding normalized to positive control peptide set at 100%, greater than 50 considered good or high affinity binding
Experimental: (§1) Actual binding affinities for certain HLA class I alleles (A*02:01, A*03:01. A*11:01, and B*08:01) were assessed in vitro for exemplary overlapping 9 amino acid peptide sequences within a portion of the 26 amino acid junction region spanning the CD28 and 4-1BB junction. Specifically, assessment was of a series of overlapping 9-mer peptides derived from the sequence […] (set forth in SEQ ID NO: 7), which contains a portion of the CD28 transmembrane domain and 4-1BB costimulatory domain spanning the junction between the domains (bond joining the two amino acids noted in underline). In addition, a series of overlapping 9-mer peptides of each of a number of different variants of this portion also were assessed, each variant containing a mutation or mutations in this region as described in Example 2.
(§2) The various 9-mer overlapping peptides were synthesized and their purity tested by MALDI-TOF Mass Spectrometry. The synthetic peptides were then incubated with recombinant MHC molecules to assess binding properties using the REVEAL Epitope Discovery System, which is a high-throughput binding assay that measures the degree to which each peptide is able to stabilize a ternary MHC-peptide complex (ProImmune, Oxford, United Kingdom). Each peptide was separately tested for this ability with respect to each of the HLA class I alleles, normalized to the degree observed for a positive control (known T cell epitope for the relevant allele). The results are reported as a score, in which the binding was normalized to the positive control peptide set at 100%.

HLA-B*08:01 = HLA-B*08:01 (Homo sapiens, UniProt P01889, A93T/A95T/D138N/E176V/E187T/K202T/Q94N/R180D/S35A/V36M/Y33D/Y91F); assay: as above; parameters: key: % binding, normalized to positive control peptide set at 100%; settings: binding normalized to positive control peptide set at 100%, greater than 50 considered good or high affinity binding
Experimental: as §1, §2

HLA-A*02:01 = HLA-A*02:01 (Homo sapiens, UniProt P04439, D140Y/D185E/D98H/E176V/E277Q/G131W/G231S/I119V/I121R/I166T/I218V/L300P/L318F/N151K/N90K/P208A/P217A/Q86G/Q94H/R138H/R169H/T345S); assay: as above; settings: for A*02:01 In Vitro Score: REVEAL score, positive control peptide set at 100%, greater than 50 = good or high affinity binding; for predicted or actual binding affinity or score for HLA class I: for at least one HLA allele (A*02:01, A*03:01, A*11:01, B*08:01) and/or at least one peptide, in silico or in vitro
Experimental: as §1, §2

HLA-A*03:01 = HLA-A*03:01 (Homo sapiens, UniProt P04439); assay: as above; settings: positive control peptide set at 100%, greater than 50 = good or high affinity binding
Experimental: as §1, §2

[2] = test system: intracellular IL-2 and IFN-γ; assay: Intracellular cytokine expression after co-culture with K562-CD19; assay type: cell-based, human; settings: versus unmodified CAR; for percentage of cells with IFN-γ cytokine expression: CD8+/CAR+ T cells after antigen stimulation; for percentage of cells with intracellular expression of IL-2: CD4+/CAR+ and CD8+/CAR+ T cells after antigen stimulation
Experimental: The production of cytokines by the anti-CD19 CAR T cells, expressing CARs containing either the native junction region or the various modified junction regions, was assessed. Engineered T cells were co-cultured with irradiated CD19-transduced K562 target cells (K562-CD19) or parental K562 cells not expressing the CD19 antigen in the presence of Golgi inhibitor. After stimulation, the cells were then fixed, permeabilized and intracellular IL-2 and IFN-γ cytokine levels were assessed by flow cytometry in CD4+/CAR+ cells and CD8+/CAR+ cells

With `CC[C@H](C)[C@H](NC(=O)[C@H](Cc1ccccc1)NC(=O)[C@H](C)N)C(=O)N[C@H](C(=O)N[C@@H](Cc1ccccc1)C(=O)N[C@@H](Cc1c[nH]c2ccccc12)C(=O)N[C@H](C(=O)N[C@@H](CCCCN)C(=O)N[C@@H](CCCNC(=N)N)C(=O)NCC(=O)N[C@@H](CCCNC(=N)N)C(=O)N[C@@H](CCCCN)C(=O)N[C@@H](CCCCN)C(=O)N[C@@H](CC(C)C)C(=O)N[C@@H](CC(C)C)C(=O)O)C(C)C)[C@@H](C)CC` (H-AFIIFWVKRGRKKLL-OH; N-terminus and C-terminus assumed) the “specific immune response (ELISpot)” value [1] was “specific immune responses also were detected”.

`CC[C@H](C)[C@H](NC(=O)[C@H](Cc1ccc(O)cc1)NC(=O)[C@H](CC(C)C)NC(=O)[C@H](CC(C)C)NC(=O)[C@H](CCCCN)NC(=O)[C@H](CCCCN)NC(=O)[C@H](CCCNC(=N)N)NC(=O)CNC(=O)[C@H](CCCNC(=N)N)NC(=O)[C@H](CCCCN)NC(=O)[C@@H](NC(=O)[C@H](Cc1c[nH]c2ccccc12)NC(=O)[C@@H](N)Cc1ccccc1)C(C)C)C(=O)N[C@@H](Cc1ccccc1)C(=O)N[C@@H](CCCCN)C(=O)O` (H-FWVKRGRKKLLYIFK-OH; N-terminus and C-terminus assumed) was tested, and the “specific immune response (ELISpot)” value [1] was “specific immune responses also were detected”.

“WVQRGNKKL [9-mer variant junction peptide, K28Q/R31N]” was tested, and the “A*11:01 In Vitro Score” value (HLA-A*11:01) was 10.70, the “B*08:01 In Vitro Score” value (HLA-B*08:01) was 32.00 and the “A*02:01 In Vitro Score” value (HLA-A*02:01) was 4.30. The “A*03:01 In Vitro” value (HLA-A*03:01) was 1.50.

“WVQRGRKKL [9-mer variant junction peptide, K28Q]” was tested, and the “A*11:01 In Vitro Score” value (HLA-A*11:01) was 12.80, the “B*08:01 In Vitro Score” value (HLA-B*08:01) was 45.10 and the “A*02:01 In Vitro Score” value (HLA-A*02:01) was 8.10. For the same molecule, the “A*03:01 In Vitro” value (HLA-A*03:01) was 4.90.

B1: R31H: variant anti-CD19 CAR / junction region with R31H, numbering SEQ ID NO:5 (protein)
chain: FWVLVVVGGVLACYSLLVTVAFIIFWVKRGHKKLLYIFKQPFMRPVQTTQEEDGCSCRFPEEEEGGCEL
modifications: CD28-4-1BB
In the case of B1, the “percentage of cells with IFN-γ cytokine expression” value [2] is reported as “increased IFN-γ cytokine expression” and the “predicted or actual binding affinity or score for HLA class I” value (HLA-A*02:01) is reported as “reduced predicted or actual binding affinity or score”.

B2: L34S: variant anti-CD19 CAR / junction region with L34S, numbering SEQ ID NO:5 (protein)
chain: FWVLVVVGGVLACYSLLVTVAFIIFWVKRGRKKSLYIFKQPFMRPVQTTQEEDGCSCRFPEEEEGGCEL
modifications: CD28-4-1BB
B2 was tested, and the “percentage of cells with intracellular expression of IL-2” value [2] was “greater percentage” and the “predicted or actual binding affinity or score for HLA class I” value (HLA-A*02:01) was “reduced predicted or actual binding affinity or score”.

B3: L34A: variant anti-CD19 CAR / junction region with L34A, numbering SEQ ID NO:5 (protein)
chain: FWVLVVVGGVLACYSLLVTVAFIIFWVKRGRKKALYIFKQPFMRPVQTTQEEDGCSCRFPEEEEGGCEL
modifications: CD28-4-1BB
For B3, the “percentage of cells with intracellular expression of IL-2” value [2] was “greater percentage”, the “percentage of cells with IFN-γ cytokine expression” value [2] was “increased IFN-γ cytokine expression” and the “predicted or actual binding affinity or score for HLA class I” value (HLA-A*02:01) was “reduced predicted or actual binding affinity or score”.
